# From ChEMBL document CHEMBL1156510, “Epidermal growth factor receptor and notch pathways participate in the tumor suppressor function of gamma-secretase” (2007)
# Active and inactive are the calls of the source. The rule behind the calls is not given here.
# Legend:
# Fibroblast [1] = test: Inhibition of Nct-/- C57BL/6;129Svi mouse fibroblast cell proliferation; assay type: functional, cell-based
# Fibroblast [2] = test: Inhibition of EGF induced Nct+/+ C57BL/6129Svi mouse fibroblast cell proliferation at 5 uM; assay type: functional, cell-based; conditions: C57BL/6
# Fibroblast [3] = test: Inhibition of EGF induced Nct-/- C57BL/6;129Svi mouse fibroblast cell proliferation at 5 uM; assay type: functional, cell-based
# Mus musculus [4] = test: Reduction of amyloid beta in Tg2576 mouse plasma at 2.5 mg/kg/day; assay type: functional; parameters: scale not given: the % may be the effect or the level left
# Mus musculus [5] = test: Reduction of amyloid beta in Tg2576 mouse brain at 2.5 mg/kg/day; assay type: functional; parameters: scale not given: the % may be the effect or the level left
# Mus musculus [6] = test: Induction of hyperproliferative skin lesions assessed as epidermal hyperplasia in Nct+/- C57BL/6;129Svi mouse at 2.5 mg/kg/day; assay type: functional, organism-based
Compound,Activity (Fibroblast [1]),Activity (Fibroblast [2]),Activity (Fibroblast [3]),Activity (Mus musculus [4]) [%],Activity (Mus musculus [5]) [%],Activity (Mus musculus [6])
COc1cc2ncnc(Nc3cccc(Cl)c3)c2cc1OC,Active,inactive,Active,–,–,–
C[C@H](NC(=O)[C@@H](O)c1cc(F)cc(F)c1)C(=O)N[C@@H]1C(=O)N(C)c2ccccc2-c2ccccc21,–,–,–,>90,>70,Active
